According to patent US9688661B2, “Substituted pyrroles active as kinases inhibitors” (NERVIANO MEDICAL SCIENCES S.R.L., priority 2012, dated 2017):

Assays:
[1] = tested on: JAK2 dependent human megakaryoblastic leukemia cell line SET-2; test: Cell proliferation assay, SET-2; format: cell-based; details: SET-2 cells, 72 hours, CellTiter-Glo
[2] = tested on: JAK2 independent human chronic myelogenous leukaemia cell line K562; test: Cell proliferation assay, K562; format: cell-based; details: K562 cells, 72 hours, CellTiter-Glo, read-out: IC50 K-562
JAK2 kinase domain = JAK2 kinase domain (Homo sapiens (Human), UniProt O60674); test: Biochemical assay for inhibitors of JAK kinase activity, JAK2; details: JAK2 kinase domain 1 nM, 60 μM ATP
JAK2 kinase domain, sequence (O60674 849-1124): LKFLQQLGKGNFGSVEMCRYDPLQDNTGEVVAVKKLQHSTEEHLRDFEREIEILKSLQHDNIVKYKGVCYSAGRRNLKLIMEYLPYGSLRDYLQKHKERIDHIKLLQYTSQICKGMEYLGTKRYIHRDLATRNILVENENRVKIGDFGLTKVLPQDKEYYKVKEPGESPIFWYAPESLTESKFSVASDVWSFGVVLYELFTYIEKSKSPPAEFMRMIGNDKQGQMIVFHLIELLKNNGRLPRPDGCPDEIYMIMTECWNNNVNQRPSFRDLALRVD
Description: (§1) Specific JAK2, JAK1 or JAK3 peptide substrates are trans-phosphorylated by JAK kinases in the presence of ATP traced with 33P-γ-ATP. At the end of the phosphorylation reaction, the unreacted ATP, cold and radioactive, is captured by an excess of dowex ion exchange resin that eventually settles by gravity to the bottom of the reaction plate. The supernatant is subsequently withdrawn and transferred into a counting plate that is then evaluated by β-counting.
(§2) 500 g of wet resin (SIGMA, custom prepared resin DOWEX 1×8 200-400 mesh, 2.5 Kg) are weighed out and diluted 2 to 1 in 150 mM sodium formate, pH 3.00. The resin is allowed to settle down overnight and then the supernatant is discarded. After three washes as above over a couple of days, the resin is allowed to settle and two volumes (with respect to the resin volume) of 150 mM sodium formate buffer are added.
(§3) Kinase buffer was composed of 50 mM HEPES pH 7.5 containing 10 mM MgCl2, 2.5 mM DTT, 10 μM Na3VO4 and 0.2 mg/mL BSA.
(§4) The peptidic substrate was purchased from American Peptide Company (Sunnyvale, Calif.).
(§5) Data are analyzed by Symix Assay Explorer software (Symix Technologies Inc.) that provides sigmoidal fitting algorithm of the 8 points dilutions curves for IC50 determination.

JAK1 kinase domain = JAK1 kinase domain (Homo sapiens (Human), UniProt P23458); test: Biochemical assay for inhibitors of JAK kinase activity, JAK1; details: preactivated JAK1 kinase domain 2.5 nM, 100 μM ATP
JAK1 kinase domain, sequence (P23458 861-1152): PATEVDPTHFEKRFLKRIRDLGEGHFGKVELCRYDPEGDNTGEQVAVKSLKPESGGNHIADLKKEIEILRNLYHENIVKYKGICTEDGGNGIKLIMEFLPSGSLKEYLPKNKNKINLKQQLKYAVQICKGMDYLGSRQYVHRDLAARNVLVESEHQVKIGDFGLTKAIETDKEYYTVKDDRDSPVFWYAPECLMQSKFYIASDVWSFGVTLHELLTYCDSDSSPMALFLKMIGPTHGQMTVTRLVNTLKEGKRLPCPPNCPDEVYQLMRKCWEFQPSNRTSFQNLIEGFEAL
Description: as §1, §2, §3
Assays were performed with the JAK1 kinase domain (residues 861-1152 of the 1154 amino acid long full-length sequence, accession number P23458 of UniProtKB/Swiss-Prot database).
The JAK1 kinase domain was preactivated with ATP for 1 h at 28° C. in order to obtain a linear kinetic.
as §4, §5

| Compound | IC50 [1] [nM] | IC50 [2] [nM] | IC50 (JAK2 kinase domain) [nM] | IC50 (JAK1 kinase domain) [nM] |
| --- | --- | --- | --- | --- |
| NC(=O)c1cc(-c2ncnc3[nH]cnc23)cn1-c1cc(C(F)(F)F)ccc1Cl [compd 245, 1-[2-Chloro-5-(trifluoromethyl)phenyl]-4-(9H-purin-6-yl)-1H-pyrrole-2-carboxamide] | 1230 | > 10000 | 27 | 386 |
| CNc1cc(-c2cc(C(N)=O)c(-c3cc(C(F)(F)F)ccc3C)[nH]2)ncn1 [compd 212, 5-[6-(Methylamino)pyrimidin-4-yl]-2-[2-methyl-5-(trifluoromethyl)phenyl]-1H-pyrrole-3-carboxamide] | 460 | > 10000 | 21 | 48 |
| CCc1ccc(Cl)cc1-c1[nH]c(-c2cc(N)ncn2)cc1C#N [compd 9, 5-(6-Aminopyrimidin-4-yl)-2-(5-chloro-2-ethylphenyl)-1H-pyrrole-3-carbonitrile] | 1270 | 7230 | 23 | 141 |
| Cc1ccc(C(F)(F)F)cc1-c1[nH]c(-c2cc(N)ncn2)cc1C(N)=O [compd 211, 5-(6-Aminopyrimidin-4-yl)-2-[2-methyl-5-(trifluoromethyl)phenyl]-1H-pyrrole-3-carboxamide] | 590 | > 10000 | 11 | 108 |
| NC(=O)c1cc(-c2ncnc3[nH]ccc23)[nH]c1-c1cc(C(F)(F)F)ccc1Cl [compd 206, 2-[2-Chloro-5-(trifluoromethyl)phenyl]-5-(7H-pyrrolo[2,3-d]pyrimidin-4-yl)-1H-pyrrole-3-carboxamide] | 700 | > 10000 | 19 | 140 |
| NC(=O)c1cc(-c2cc(N)ncn2)cn1-c1cc(C(F)(F)F)ccc1Cl [compd 242, 4-(6-Aminopyrimidin-4-yl)-1-[2-chloro-5-(trifluoromethyl)phenyl]-1H-pyrrole-2-carboxamide] | 1570 | > 10000 | 71 | 1080 |
| NC(=O)c1cc(-c2cc(N)ncn2)[nH]c1-c1cc(C(F)(F)F)ccc1Cl [compd 204, 5-(6-Aminopyrimidin-4-yl)-2-[2-chloro-5-(trifluoromethyl)phenyl]-1H-pyrrole-3-carboxamide] | 450 | > 10000 | 12 | 167 |
| CNc1cc(-c2cc(C(N)=O)c(-c3cc(C(F)(F)F)ccc3Cl)[nH]2)ncn1 [compd 205, 2-[2-Chloro-5-(trifluoromethyl)phenyl]-5-[6-(methylamino)pyrimidin-4-yl]-1H-pyrrole-3-carboxamide] | 650 | > 10000 | 19 | 104 |
| CNC(=O)c1cc(-c2ncnc3[nH]ccc23)[nH]c1-c1cc(C(F)(F)F)ccc1C [compd 318, 2-[2-Methyl-5-(trifluoromethyl)phenyl]-N-methyl-5-(7H-pyrrolo[2,3-d]pyrimidin-4-yl)-1H-pyrrole-3-carboxamide] | 350 | > 10000 | 25 | 63 |
| Cc1ccc(Cl)cc1-n1cc(-c2cc(N)ncn2)cc1C(N)=O [compd 227, 4-(6-Aminopyrimidin-4-yl)-1-(5-chloro-2-methylphenyl)-1H-pyrrole-2-carboxamide] | 2360 | > 10000 | 73 | 595 |
| Cc1ccc(Cl)cc1-c1[nH]c(-c2cc(N)ncn2)cc1C(N)=O [compd 189, 5-(6-Aminopyrimidin-4-yl)-2-(5-chloro-2-methylphenyl)-1H-pyrrole-3-carboxamide] | 890 | > 10000 | 19 | 139 |
| NC(=O)c1cc(-c2ncnn3cccc23)cn1-c1cc(C(F)(F)F)ccc1Cl [compd 247, 1-[2-Chloro-5-(trifluoromethyl)phenyl]-4-(pyrrolo[2,1-f][1,2,4]triazin-4-yl)-1H-pyrrole-2-carboxamide] | – | – | – | 991 |
